Among the data in article PMC11077868, “Rutinosides-derived from Sarocladium strictum 6-O-α-rhamnosyl-β-glucosidase show enhanced anti-tumoral activity in pancreatic cancer cells” (Microbial Cell Factories, 2024) are Km values, retold here.

For assay [1], the system named is T1, 6-O-α-rhamnosyl-β-glucosidase (αRβG).
T1 construct: native, purified from culture supernatant of S. strictum; 99 kDa by SDS-PAGE; tryptic peptide TIHETYLAPWYDGVK matched to a 755-residue putative glycoside hydrolase (21-residue signal peptide) of another strain, A. strictum DS1bioAY4a, JGI ID 1029425
Description: hydrolysis; reducing sugars by […],4-dinitrosalicylic acid, Michaelis-Menten fit. The following applies: 50 mM sodium phosphate pH 6.0, 60 °C, 1 h. Format: biochemical, Sarocladium strictum.

The test system is the same in assay [2]. Description: hydrolysis; product release, Michaelis-Menten fit. The format is biochemical, Sarocladium strictum. The following applies: 50 mM sodium phosphate pH 6.0, 60 °C, 1 h.

`COc1ccc([C@@H]2CC(=O)c3c(O)cc(O[C@@H]4O[C@H](CO[C@@H]5O[C@@H](C)[C@H](O)[C@@H](O)[C@H]5O)[C@@H](O)[C@H](O)[C@H]4O)cc3O2)cc1O` [hesperidin]: the Km in assay [1] came out at 700 ± 120 µM. Take `C[C@@H]1O[C@@H](OC[C@H]2O[C@@H](Oc3c(-c4ccc(O)c(O)c4)oc4cc(O)cc(O)c4c3=O)[C@H](O)[C@@H](O)[C@@H]2O)[C@H](O)[C@H](O)[C@H]1O` [rutin]: the Km in assay [2] is 473 ± 4 µM.

As a reminder, the Km is the substrate concentration at which the rate is half of its maximum.
